Measurements: US7868204B2, “Inhibitors of histone deacetylase” (MethylGene Inc., priority 2001, dated 2011)
Read-outs that look alike come from different tables or passages of the source.

Key:
[1] = molecular target: T1, cloned recombinant human HDAC-1 (Homo sapiens, UniProt Q13547); assay: Human HDAC-1 enzyme inhibition, Assay 1 ([3H]-acetylated histone substrate, scintillation counting); type: biochemical
T1 construct: made in house; host or cells: Baculovirus insect cell expression system
Outline: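 Activity read as [3H]-acetic acid liberated from labeled substrate, ethyl acetate-extracted and scintillation-counted. Compounds preincubated 30 min at 4° C. with baculovirus-expressed, purified human HDAC-1. Dose-response curves give IC50 as concentration producing fifty percent of maximal inhibition.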

HCT116 cells = assay: MTT assay; type: cell-based; details: Homo sapiens, HCT116 cells, 72 hours
Outline: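 Read-out: MTT (0.5 mg/ml final, 4 h) after solubilization in 50% DMF/20% SDS, pH 4.7, with OD translated into cell number via the line's growth curve. Compound treatment lasted 72 h at 37 °C in 5% CO2, starting a day after plating.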

[2] = tested on: acetylated histone H-4 in T24 human bladder cancer cells; assay: Histone H4 acetylation in whole cells by immunoblots; type: cell-based; details: 16 h
Outline: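 Acetylated histone H4 was quantified by densitometry of ECL-developed immunoblots, probed with a polyclonal antibody, of […] total histone from T24 cultures exposed 16 h to HDAC inhibitors.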

[3] = T-24, Table 5d, read-out: H4Ac(T24) EC50
[4] = Table 5F, read-out: Human HDAC-1 IC50
[5] = T-24, Table 5F, read-out: H4 Ac (T24) EC50
[6] = Table 5c, read-out: Human HDAC-1 IC50
[7] = T-24, Table 5c, read-out: H4Ac (T24) EC50

T1 sequence (Q13547 whole entry): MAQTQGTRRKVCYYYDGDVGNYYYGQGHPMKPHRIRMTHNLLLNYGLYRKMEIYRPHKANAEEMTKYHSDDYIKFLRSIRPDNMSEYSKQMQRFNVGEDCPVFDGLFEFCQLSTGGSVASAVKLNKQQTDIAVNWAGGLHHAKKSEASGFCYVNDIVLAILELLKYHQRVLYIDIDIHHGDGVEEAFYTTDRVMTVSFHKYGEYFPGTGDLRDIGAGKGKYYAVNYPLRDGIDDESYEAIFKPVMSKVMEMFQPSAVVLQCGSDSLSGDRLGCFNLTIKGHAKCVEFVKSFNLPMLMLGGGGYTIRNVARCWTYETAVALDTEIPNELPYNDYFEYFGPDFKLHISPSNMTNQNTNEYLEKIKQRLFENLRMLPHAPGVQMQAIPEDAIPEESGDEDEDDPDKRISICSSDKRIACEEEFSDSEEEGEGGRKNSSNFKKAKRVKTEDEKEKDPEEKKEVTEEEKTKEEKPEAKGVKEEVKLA

SMILES | IC50 [1, 4] | IC50 (HCT116 cells; HCT-116, 72 h, Table 5F) | EC50 [2, 5] | also measured
Nc1ccccc1NC(=O)/C=C/c1ccc(CNc2ccc(Cc3ccncc3)cc2)cc1 [Cpd 531, N-(2-Amino-phenyl)-3-{4-[(4-pyridin-4-ylmethyl-phenylamino)-methyl]-phenyl}-acrylamide] | – | – | – | IC50 ([1]; HDAC-1 IC50, Table 5d): 3 µM; IC50 (HCT116 cells; HCT-116, Table 5d): 2000 nM; EC50 [2, 3]: 20000 nM
Nc1ccccc1NC(=O)c1ccc(-c2ccc(C(=O)Nc3ccccc3N)cc2)cc1 [Cpd 375, Biphenyl-4,4′-dicarboxylic acid bis-[(2-amino-phenyl)-amide]] | 3 µM | 4000 nM | 25000 nM | –
COc1cc(NCc2ccc(C(=O)Nc3ccccc3N)cc2)cc(OC)c1 [Cpd 397, N-(2-Amino-phenyl)-4-[(3,5-dimethoxy-phenylamino)-methyl]-benzamide] | 1 µM | 600 nM | 4000 nM | –
COc1ccc(N(Cc2ccc(C(=O)Nc3ccccc3N)cc2)C(=O)Nc2ccc(Cl)cc2)cc1OC [Cpd 372, N-(2-Amino-phenyl)-4-[3-(4-chloro-phenyl)-1-(3,4-dimethoxy-phenyl)-ureidomethyl]-benzamide] | 2 µM | 200 nM | 1000 nM | –
Nc1ccccc1NC(=O)c1ccc(Cc2nc(CN3CCOCC3)cs2)cc1 [Cpd 252] | 8 µM | 1000 nM | 2000 nM | –
COc1ccc(N(Cc2ccc(C(=O)Nc3ccccc3N)cc2)C(=O)Nc2ccc(SC)cc2)cc1OC [compound 317, N-(2-Aminophenyl)-4-[1-(3,4-dimethoxyphenyl)-3-(4-methylsulfanylphenyl)-ureidomethyl]-benzamide] | 2 µM | 300 nM | 1000 nM | –
Nc1ccccc1NC(=O)c1ccc(CC2Cc3ccccc3C2O)cc1 (stereo not drawn) [compound 275, N-(2-Amino-phenyl)-4-(1-hydroxy-indan-2-ylmethyl)-benzamide] | 4 µM | 900 nM | 2000 nM | –
Nc1ccccc1NC(=O)c1ccc(Cn2c(=O)c3ccccc3n(CCN3CCOCC3)c2=O)cc1 [Cpd 341] | 4 µM | 1000 nM | 3000 nM | –
COc1ccc(NCc2ccc(C(=O)Nc3ccccc3N)cc2)c(OC)n1 [Cpd 388, N-(2-Amino-phenyl)-4-[(2,6-dimethoxy-pyridin-3-ylamino)-methyl]-benzamide] | 3 µM | 400 nM | 5000 nM | –
CCn1c(=O)n(Cc2ccc(C(=O)Nc3ccccc3N)cc2)c(=O)c2cc(Br)ccc21 [Cpd 344, N-(2-Amino-phenyl)-4-(6-bromo-1-ethyl-2,4-dioxo-1,4-dihydro-2H-quinazolin-3-ylmethyl)-benzamide] | 0.5 µM | 200 nM | 1000 nM | –
Nc1ccccc1NC(=O)c1ccc(CSc2ccccn2)cc1 [Cpd 381] | 2 µM | 1000 nM | 2000 nM | –
CN1C(=O)C2(OCCO2)c2cc(NCc3ccc(C(=O)Nc4ccccc4N)cc3)ccc21 [Cpd 459] | 4 µM | 300 nM | 1000 nM | –
COc1cc(OC)cc(OCc2ccc(C(=O)Nc3ccccc3N)cc2)c1 [Cpd 395, N-(2-Amino-phenyl)-4-(3,5-dimethoxy-phenoxymethyl)-benzamide] | 2 µM | 1000 nM | 5000 nM | –
Nc1ccccc1NC(=O)/C=C/c1ccc(NCc2cccc(C(F)(F)F)c2)nc1 [Cpd 101, N-(2-aminophenyl)-3-[6-(3-trifluoromethyl-benzylamino)-pyridin-3-yl]-acrylamide] | – | – | – | IC50 [1, 6]: 3 µM; IC50 (HCT116 cells; HCT-116, 72 h, Table 5c): 900 nM; EC50 [2, 7]: 5000 nM
Nc1nc(NC2Cc3ccccc3C2)nc(OCc2ccc(C(=O)Nc3ccccc3N)cc2)n1 [Cpd 207] | – | – | – | IC50 ([1]; Table 5b, read-out: Human HDAC-1 IC50): 0.4 µM; IC50 (HCT116 cells; HCT-116, 72 h, Table 5b): 600 nM; EC50 ([2]; T-24, Table 5b, read-out: H4Ac (T24) EC50): 2000 nM
Nc1ccccc1NC(=O)c1ccc(CSc2ncc[nH]2)cc1 [Cpd 327, N-(2-Amino-phenyl)-4-(1H-imidazol-2-ylsulfanylmethyl)-benzamide] | 2 µM | 5000 nM | 3000 nM | –
COc1ccc(Cn2c(=O)n(Cc3ccc(C(=O)Nc4ccccc4N)cc3)c(=O)c3ccccc32)cc1 [Cpd 345, N-(2-Amino-phenyl)-4-[1-(4-methoxy-benzyl)-2,4-dioxo-1,4-dihydro-2H-quinazolin-3-ylmethyl]-benzamide] | 0.4 µM | 800 nM | 1000 nM | –
COc1cc(N(CCN2CCOCC2)Cc2ccc(/C=C/C(=O)Nc3ccccc3N)cc2)cc(OC)c1OC [Cpd 523, N-(2-Amino-phenyl)-3-(4-{[(2-morpholin-4-yl-ethyl)-(3,4,5-trimethoxy-phenyl)-amino]-methyl}-phenyl)-acrylamide] | – | – | – | IC50 ([1]; Table 5d, read-out: HDAC-1 IC50): 8 µM; IC50 (HCT116 cells; HCT-116, Table 5d): 6000 nM; EC50 [2, 3]: 10000 nM
CN(C)CCn1c(=O)n(Cc2ccc(C(=O)Nc3ccccc3N)cc2)c(=O)c2ccccc21 [Cpd 340, N-(2-Amino-phenyl)-4-[1-(2-dimethylamino-ethyl)-2,4-dioxo-1,4-dihydro-2H-quinazolin-3-ylmethyl]-benzamide] | 2 µM | 1000 nM | 1000 nM | –
Nc1ccccc1NC(=O)c1ccc(Cc2noc(-c3cccnc3)n2)cc1 [Cpd 357, N-(2-Amino-phenyl)-4-(5-pyridin-3-yl-[1,2,4]oxadiazol-3-ylmethyl)-benzamide] | 4 µM | 400 nM | 2000 nM | –
Nc1nc(NCc2ccc(C(=O)Nc3ccccc3N)cc2)nc(N2CCc3ccccc32)n1 [Cpd 22, 4-{[4-Amino-6-(2,3-dihydro-indol-1-yl)-[1,3,5]triazin-2-ylamino]-methyl}-N-(2-amino-phenyl)-benzamide] | – | – | – | IC50 ([1]; Table 5a, read-out: Human HDAC-1 IC50): 3 µM; IC50 (HCT116 cells; HCT-116, 72 h, Table 5a): 800 nM; EC50 ([2]; T-24, Table 5a, read-out: H4Ac (T24) EC50): 1000 nM
CC(=O)c1cc2c(cc1NCc1ccc(C(=O)Nc3ccccc3N)cc1)OCO2 [Cpd 386, 4-[(6-Acetyl-benzo[1,3]dioxol-5-ylamino)-methyl]-N-(2-amino-phenyl)-benzamide] | 3 µM | 1000 nM | 1000 nM | –
Nc1ccccc1NC(=O)c1ccc(NCc2cccc(OC(F)(F)F)c2)cc1 [Cpd 425, N-(2-Amino-phenyl)-4-(3-trifluoromethoxy-benzylamino)-benzamide] | 2 µM | 600 nM | 5000 nM | –
Nc1cscc1NC(=O)c1ccc(CNc2nc3ccc(OCCN4CCOCC4)cc3s2)cc1 [Cpd 573, N-(4-Amino-thiophen-3-yl)-4-{[6-(2-morpholin-4-yl-ethoxy)-benzothiazol-2-ylamino]-methyl}-benzamide] | 7 µM | 400 nM | 1000 nM | –
Nc1ccccc1NC(=O)c1ccc(CNc2nc3ccc(OCCN4CCOCC4)cc3s2)cc1 [Cpd 228] | 3 µM | 300 nM | 1000 nM | –
Nc1ccccc1NC(=O)/C=C/c1ccc(CNC(=O)OCc2cccnc2)cc1 [Cpd 104] | – | – | – | IC50 [1, 6]: 10 µM; IC50 (HCT116 cells; HCT-116, 72 h, Table 5c): 9000 nM; EC50 [2, 7]: 5000 nM
COc1cc(N2CC(c3ccc(C(=O)Nc4ccccc4N)cc3)OC2=O)cc(OC)c1OC (stereo not drawn) [compound 297, N-(2-Amino-phenyl)-4-[2-oxo-3-(3,4,5-trimethoxy-phenyl)-oxazolidin-5-yl]-benzamide] | 7 µM | 400 nM | 1000 nM | –
COc1ccc2[nH]c(SCc3ccc(C(=O)Nc4ccccc4O)cc3)nc2c1 [compound 311] | 0.9 µM | 700 nM | 1000 nM | –
